In PMC11157491, “Novel Alaninamide Derivatives with Drug-like Potential for Development as Antiseizure and Antinociceptive Therapies—In Vitro and In Vivo Characterization” (ACS Chemical Neuroscience, 2024):

Tests used:
[1] = PAMPA passive permeability; type: in vitro ADME; settings: precoated PAMPA Plate System; for Papp: read-out: PAMPA—Pe ± SD
Source text: The precoated parallel artificial membrane permeability assay (PAMPA) was used to determine the passive mechanism of permeability.

[2] = tested on: human serum albumin (HSA) and α1-acid glycoprotein (AGP)
mice [3] = assay: 6 Hz (44 mA) model of pharmacoresistant seizures; type: in vivo; settings: Mus musculus, ip, pretreatment 0.5 h
Procedure: Based on the promising pharmacological data for 26 and 28, and especially potent protection in the 6 Hz (32 mA) seizure model, both compounds were tested subsequently in the 6 Hz seizure model, applying a higher current intensity of 44 mA (Table 3). Importantly, this test is recognized as one of the key animal models of pharmacoresistant seizures, utilized in the early stage of new ASMs’ development.
(§1) In the initial screening studies, four mice per group were randomly assigned to each experimental group (each mouse was used only once). To evaluate the ED50 or TD50 values, four groups consisting of eight animals were injected with various doses of tested compounds. The protective indexes (PIs) for the compounds investigated and reference ASMs were calculated by dividing the TD50 value, as determined in the chimney test, by the respective ED50 value, as determined in the MES, scPTZ, or 6 Hz (32 or 44 mA) tests (PI = TD50/ED50). The PIs are a measure of the potential therapeutic window of the tested agent.
All substances were suspended in Tween 80 (1% aqueous solution) and administered i.p. as a single injection at a dose of 10 mL/kg. On each day of experimentation, fresh solutions were prepared. […]

[4] = molecular target: T1, Cav1.2 (h) calcium ion channel (Homo sapiens, UniProt Q13936); assay: Cav1.2 cell-based antagonist calcium flux assay; settings: HEK293, human recombinant HEK-293 cell, read-out: % inhibition of control agonist response
T1 construct: Eurofins (contract assay)
Procedure: Importantly, sodium or calcium conductance is often associated with the pathophysiology of epilepsy as well as neuropathic pain.[46]−[50] Therefore, both sodium and calcium ion channels are well-established molecular targets for structurally diverse ASMs such as LCS, lamotrigine, carbamazepine, oxcarbazepine, etc.[51] Consequently, we carried out binding and/or functional studies toward the sodium channel (site 2) and calcium Cav1.2 channel at high concentrations (100 μM) of 26 and 28 (Table 5). […] Next, 26 and 28 due to the presence of the phenylpiperazine moiety, which is a well-recognized pharmacophore for serotoninergic receptor (5-HTxR) ligands,[52] were evaluated for their influence on 5-HT2CR, where stimulation plays a key role for the antiseizure activity of lorcaserin (one of the newest ASMs).[6]
Binding/functional studies were carried out commercially in Eurofins Laboratories (Poitiers, France) and Eurofins Panlabs Discovery Services Taiwan, Ltd. (New Taipei City, Taiwan) using testing procedures that were reported previously (for details, see Table S2).
Table S2. Radioligand binding and functional assays. […]
Cav1.2 (L-type) (h) calcium ion channel cell-based antagonist calcium flux assay […]
Assays were performed commercially in Eurofins Laboratories ( Poitiers, France) or Eurofins Panlabs Discovery Services
Taiwan, Ltd. (New Taipei City, Taiwan).

mice [5] = assay: Maximal electroshock (MES) seizure test; type: in vivo; settings: for responders at 100 mg/kg / ED50: Mus musculus, ip; for responders at 100 mg/kg: read-out: MES: number of mice protected/number of mice tested (converted); for ED50: mice, pretreatment 0.5 h
Source text: Identification and profiling of new ASM candidate compounds are still largely based on predictive animal models of seizures/epilepsy, while a range of in silico and in vitro approaches (i.e., molecular modeling or high throughput screening, etc.) are increasingly used in the early stages of ASM discovery.[31] The Epilepsy Therapy Screening Program (ETSP) of the National Institute of Neurological Disorders and Stroke (NIH, Bethesda, MD) has enabled the discovery of several approved ASMs by focusing on the in vivo testing of compounds synthesized by both academic laboratories and industry.[32] The ETSP provides a broad panel of seizure tests (ca. 30 rodent models), but a subset of them is used for the initial screening of new compounds with potential antiseizure activity. The routinely used seizure models include: (i) the MES test, which is an experimental model of tonic–clonic seizures, (ii) the 6 Hz model (32 mA) of focal seizures, and (iii) the scPTZ model of generalized absence or myoclonic seizures.[33],[34] Consequently, in the current studies, all final compounds 21–36 and 45–48 were initially studied in the MES and the 6 Hz (32 mA) seizure models after intraperitoneal (i.p.) administration at a screening dose of 100 mg/kg in mice at a time point of 0.5 h (the screening group consisted of four mice, and the results obtained are summarized in Table S1).
These parameters were then used to calculate the protective indexes (PIs, PI = TD50/ED50), which describe the therapeutics window of potential drug candidates. The ED50, TD50, and PI values for the tested compounds together with data of their chemical prototypes KA-11 and KJ-5 and reference ASMs are summarized in Table 2.
The adult male Albino Swiss mice weighed between 22 and 26 g were used in the in vivo studies. They were housed under standardized housing conditions in colony cages and had free access to food as well as tap water. The animals were left to adapt under laboratory conditions for 7 days. All procedures involving animals and their care were performed in accordance with the current European Community and Polish legislation on animal experimentation.
as §1
All substances were suspended in Tween 80 (1% aqueous solution) and administered i.p. as a single injection at a dose of 10 mL/kg. On each day of experimentation, fresh solutions were prepared. The detailed in vivo procedures are described elsewhere: the maximal electroshock seizure test (MES),[60] the subcutaneous pentylenetetrazole seizure test (scPTZ),[61] the 6 Hz psychomotor seizure model (32 and 44 mA),[62] and the chimney test.[63] The reference ASMs were purchased from commercial suppliers: VPA (Sigma-Aldrich, St. Louis, MO), LCS, and LEV (UCB Pharma, Braine l’Alleud, Belgium).

T1 sequence (Q13936 whole entry): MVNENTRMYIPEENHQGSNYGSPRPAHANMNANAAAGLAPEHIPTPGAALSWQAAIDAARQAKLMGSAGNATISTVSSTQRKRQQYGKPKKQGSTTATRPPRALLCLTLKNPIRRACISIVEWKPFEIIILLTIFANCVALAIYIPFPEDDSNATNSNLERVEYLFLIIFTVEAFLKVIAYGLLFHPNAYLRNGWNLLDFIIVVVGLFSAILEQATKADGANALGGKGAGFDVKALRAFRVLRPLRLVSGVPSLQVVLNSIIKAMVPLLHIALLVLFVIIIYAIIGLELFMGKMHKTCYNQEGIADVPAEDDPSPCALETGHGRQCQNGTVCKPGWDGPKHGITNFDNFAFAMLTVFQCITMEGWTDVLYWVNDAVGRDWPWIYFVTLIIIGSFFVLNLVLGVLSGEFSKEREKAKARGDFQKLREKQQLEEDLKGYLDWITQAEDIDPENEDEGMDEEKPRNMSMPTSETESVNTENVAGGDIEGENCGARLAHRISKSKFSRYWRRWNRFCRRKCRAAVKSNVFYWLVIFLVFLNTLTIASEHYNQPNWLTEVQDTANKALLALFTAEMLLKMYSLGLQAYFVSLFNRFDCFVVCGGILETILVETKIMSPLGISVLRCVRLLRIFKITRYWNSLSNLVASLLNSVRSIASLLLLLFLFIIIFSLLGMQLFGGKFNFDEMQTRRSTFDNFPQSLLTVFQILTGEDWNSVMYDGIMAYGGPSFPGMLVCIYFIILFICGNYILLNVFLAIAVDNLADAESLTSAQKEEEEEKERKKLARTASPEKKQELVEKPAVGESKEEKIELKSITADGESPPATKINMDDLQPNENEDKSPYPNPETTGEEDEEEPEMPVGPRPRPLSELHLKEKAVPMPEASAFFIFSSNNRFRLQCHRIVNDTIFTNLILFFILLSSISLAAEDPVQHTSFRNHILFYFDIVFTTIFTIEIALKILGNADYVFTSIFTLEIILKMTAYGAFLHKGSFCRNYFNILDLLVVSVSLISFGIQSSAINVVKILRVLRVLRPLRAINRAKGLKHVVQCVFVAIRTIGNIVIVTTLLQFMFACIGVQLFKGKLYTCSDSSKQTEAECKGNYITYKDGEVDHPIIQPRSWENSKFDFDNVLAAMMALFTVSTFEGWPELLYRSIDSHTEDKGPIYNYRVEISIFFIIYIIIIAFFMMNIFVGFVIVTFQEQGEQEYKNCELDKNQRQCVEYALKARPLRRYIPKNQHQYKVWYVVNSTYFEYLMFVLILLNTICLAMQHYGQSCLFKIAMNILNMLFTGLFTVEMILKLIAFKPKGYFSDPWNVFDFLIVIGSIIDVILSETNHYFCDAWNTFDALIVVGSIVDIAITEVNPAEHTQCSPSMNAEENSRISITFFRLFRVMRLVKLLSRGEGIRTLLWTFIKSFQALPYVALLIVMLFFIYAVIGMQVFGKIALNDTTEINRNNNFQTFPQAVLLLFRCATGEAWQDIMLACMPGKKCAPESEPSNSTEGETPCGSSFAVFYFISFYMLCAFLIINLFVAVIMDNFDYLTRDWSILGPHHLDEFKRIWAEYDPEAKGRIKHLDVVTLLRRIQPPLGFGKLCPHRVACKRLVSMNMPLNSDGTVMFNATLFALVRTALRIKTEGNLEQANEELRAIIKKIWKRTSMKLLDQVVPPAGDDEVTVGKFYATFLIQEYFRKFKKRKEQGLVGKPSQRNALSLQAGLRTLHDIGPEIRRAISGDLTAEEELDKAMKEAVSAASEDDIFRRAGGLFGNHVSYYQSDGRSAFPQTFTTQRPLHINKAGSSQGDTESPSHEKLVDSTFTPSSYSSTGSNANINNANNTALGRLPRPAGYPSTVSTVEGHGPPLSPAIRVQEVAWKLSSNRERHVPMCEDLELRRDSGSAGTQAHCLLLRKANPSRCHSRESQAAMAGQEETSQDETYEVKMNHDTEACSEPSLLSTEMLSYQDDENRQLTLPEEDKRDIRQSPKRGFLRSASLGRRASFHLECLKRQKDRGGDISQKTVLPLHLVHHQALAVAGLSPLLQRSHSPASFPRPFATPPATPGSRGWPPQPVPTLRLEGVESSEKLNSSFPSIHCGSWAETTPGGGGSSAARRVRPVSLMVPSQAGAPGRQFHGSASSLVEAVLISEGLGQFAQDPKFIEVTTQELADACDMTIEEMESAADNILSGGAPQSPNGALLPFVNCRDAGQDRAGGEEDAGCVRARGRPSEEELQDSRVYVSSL
T1 sequence (Q08289 whole entry partner): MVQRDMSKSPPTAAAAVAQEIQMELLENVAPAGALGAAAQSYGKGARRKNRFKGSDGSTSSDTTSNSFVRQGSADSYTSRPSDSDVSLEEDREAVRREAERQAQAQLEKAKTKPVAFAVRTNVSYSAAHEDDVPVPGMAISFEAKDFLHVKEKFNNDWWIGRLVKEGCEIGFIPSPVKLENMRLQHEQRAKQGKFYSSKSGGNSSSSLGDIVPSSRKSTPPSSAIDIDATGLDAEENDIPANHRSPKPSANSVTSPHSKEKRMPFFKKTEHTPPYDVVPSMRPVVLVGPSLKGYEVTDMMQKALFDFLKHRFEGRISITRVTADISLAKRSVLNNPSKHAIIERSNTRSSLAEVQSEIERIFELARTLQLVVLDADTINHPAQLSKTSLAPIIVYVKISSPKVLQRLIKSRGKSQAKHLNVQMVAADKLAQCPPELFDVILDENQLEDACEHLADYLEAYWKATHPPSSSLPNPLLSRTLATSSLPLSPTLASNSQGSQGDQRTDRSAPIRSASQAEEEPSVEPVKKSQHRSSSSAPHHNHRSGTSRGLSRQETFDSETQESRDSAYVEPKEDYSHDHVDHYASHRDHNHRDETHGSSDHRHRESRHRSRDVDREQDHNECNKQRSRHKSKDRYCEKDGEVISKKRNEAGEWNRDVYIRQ
T1 sequence (P54289 25-956 partner limits assumed): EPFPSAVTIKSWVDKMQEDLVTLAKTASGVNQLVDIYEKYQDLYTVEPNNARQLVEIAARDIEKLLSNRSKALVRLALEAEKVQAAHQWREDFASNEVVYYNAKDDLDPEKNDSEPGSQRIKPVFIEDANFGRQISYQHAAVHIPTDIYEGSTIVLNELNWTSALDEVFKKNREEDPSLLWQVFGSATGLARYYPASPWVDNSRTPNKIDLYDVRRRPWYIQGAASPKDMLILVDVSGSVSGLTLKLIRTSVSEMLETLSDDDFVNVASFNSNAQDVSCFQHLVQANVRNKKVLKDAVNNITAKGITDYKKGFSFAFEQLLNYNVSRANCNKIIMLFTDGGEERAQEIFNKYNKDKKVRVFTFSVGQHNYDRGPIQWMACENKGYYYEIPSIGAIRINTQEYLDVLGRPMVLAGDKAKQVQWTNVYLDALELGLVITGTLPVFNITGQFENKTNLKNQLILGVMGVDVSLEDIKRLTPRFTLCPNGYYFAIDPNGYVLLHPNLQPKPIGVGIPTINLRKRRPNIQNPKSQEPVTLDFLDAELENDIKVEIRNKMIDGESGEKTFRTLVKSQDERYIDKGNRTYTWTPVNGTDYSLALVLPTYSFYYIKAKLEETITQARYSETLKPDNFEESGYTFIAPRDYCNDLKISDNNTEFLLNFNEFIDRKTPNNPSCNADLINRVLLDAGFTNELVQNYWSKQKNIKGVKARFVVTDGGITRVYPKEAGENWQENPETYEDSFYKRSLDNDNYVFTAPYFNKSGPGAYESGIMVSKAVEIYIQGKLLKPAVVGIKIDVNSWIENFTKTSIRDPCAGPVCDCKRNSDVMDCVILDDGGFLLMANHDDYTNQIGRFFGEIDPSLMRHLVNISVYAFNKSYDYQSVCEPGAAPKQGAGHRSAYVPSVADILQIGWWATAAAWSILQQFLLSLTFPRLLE
T1 sequence (P54289 957-1103 partner limits assumed): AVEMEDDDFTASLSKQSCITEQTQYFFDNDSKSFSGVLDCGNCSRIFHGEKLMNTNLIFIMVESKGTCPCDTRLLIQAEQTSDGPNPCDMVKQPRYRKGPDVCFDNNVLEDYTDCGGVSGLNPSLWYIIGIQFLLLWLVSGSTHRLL

Row | PAMPA—Pe ± SD [1] | Papp [1] | plasma protein binding—KD [2] | SMILES | ED50 (mice [3]) | inhibition at 100 µM [4] | antiseizure protection in MES screening (mice [5]; 100 mg/kg i.p., 0.5 h, four mice) | responders at 100 mg/kg (mice [5]; 100 mg/kg i.p., 0.5 h) | ED50 (mice [5])
1 | 4.51 10^–6 cm/s | 4.51 ± 0.61 ×10⁻⁶ cm/s | 1670.0 µM | CC(=O)NC(C)C(=O)N1CCN(c2cccc(C(F)(F)F)c2)CC1 (stereo not drawn) [Compound 26, N-(1-oxo-1-(4-(3-(Trifluoromethyl)phenyl)piperazin-1-yl)propan-2-yl)acetamide] | 29.9 mg/kg | 7% | 100% | 100% | 64.3 mg/kg
2 | 5.95 10^–6 cm/s | 5.95 ± 0.51 ×10⁻⁶ cm/s | 1260.0 µM | CC(=O)NC(C)C(=O)N1CCN(c2cccc(OC(F)(F)F)c2)CC1 (stereo not drawn) [Compound 28, N-(1-oxo-1-(4-(3-(Trifluoromethoxy)phenyl)piperazin-1-yl)propan-2-yl)acetamide] | 29.5 mg/kg | -7.9% |  | 100% | 34.9 mg/kg
